The values below are quoted from earlier work in patent EP4046639A1, “PREVENTION OF PULMONARY VASCULAR LEAK IN COVID-19” (priority 2021, dated 2022).

Like-named read-outs stand apart in the source and are kept apart here.

This series relates to Covid-19.

As for `C[C@@H]1C[C@H]2[C@@H]3CCC4=CC(=O)C=C[C@]4(C)[C@@]3(F)[C@@H](O)C[C@]2(C)[C@@]1(O)C(=O)CO` [Dexamethason], the Covid-19 mortality is, setting by setting: (hospitalized patients, reduced from 24) 20%; (patients in the intensive care unit (ICU), reduced from 40) 30%.
